{"source": "patent US20220202912A1", "about": "“Polypeptides in Preparation of Drugs for Treatment or Prevention of Rheumatoid Arthritis” (priority 2011, published 2022)", "key": {"[1]": {"tested_on": "cotton ball granuloma", "format": "in vivo, SD rats", "details": "day 8; 5 mg/kg sc once a day (Dexamethasone, G2)", "method": "The rats are randomly divided into a model control group, a positive control (dexamethasone) group, and mPEG-SC20k-HM-3 groups using subcutaneous injection at a high dose, a medium dose and a low dose, a total of 5 groups, and the drugs are administered to each group of animals by subcutaneous injection, for 7 days in succession.\nRats in each group are anesthetized with pentobarbital sodium (40 mg/kg) by intraperitoneal injection, and the abdominal coat is cut off. The skin in the middle of the lower abdomen is cut open under aseptic condition, and the incision is about 1 cm long. The subcutaneous tissue is expanded by vascular forceps, and 30 mg of sterile dry cotton balls (weighed accurately by an electronic balance before the test, and undergoing conventional autoclaving and drying for later use) are implanted hypodermically into the groin on one side. The incision is sutured, and an appropriate amount of amoxicillin is sprinkled on the incision to prevent infection.\nThe drug is administered on the same day after surgery, and is administered for 7 days in succession. On day 8, the rats are killed by cervical dislocation, the cotton balls are removed surgically, the fat tissue is removed, and the […] at 60° C. The mass of granuloma is expressed in mg (granulomatoma)/100 g (body weight). The granuloma mass difference between each administration group and the model control group is compared, and the inhibition rate is calculated. Data statistical analysis is performed on significant differences between the groups.\nInhibition rate (%)=(average granuloma mass of model control group−average granuloma mass of administration group)/average granuloma mass of model control group×100%."}, "[2]": {"tested_on": "IL-1β", "assay": "IL-1β production by mouse peritoneal macrophages (LPS, ELISA)", "format": "cell-based, C57BL/6 mice", "details": "50 μmoL/L, LPS 5 μg/mL, 48 h", "method": "In the test, mice are divided into […], namely a blank control group, a lipopolysaccharide (LPS) model group, a dexamethasone group, and mPEG-SC20k-HM-3 groups at different doses (0.56, 1.12, 2.25, 4.50, 9.00 μmol/L).\n(1) IL-1 production: mice are intraperitoneally injected with 1 mL of broth medium (containing 6% of starch). After three days, mouse peritoneal macrophages are taken aseptically and washed twice with RPMI 1640 medium, and the cell concentration is adjusted to 2×10^6 cells/mL. The cells are injected into a 24-well culture plate, 1 mL per well, and the cells are incubated in a cell incubator for 3 h, and vibrated once every 30 min to make the cells fully adhere. Then the cells are washed twice with culture solution to remove non-adherent cells, are cultured continuously for 48 h after administration, and are centrifuged at 1000 r for 15 min. The supernatant is collected as a sample with IL-1β to be tested. (2) Determination of IL-1 content: various solutions are prepared; tested samples and standard substances with different concentrations (100 μL/well) are added into the corresponding wells, reaction wells are sealed with plate-sealing adhesive tape, and incubation is performed at 37° C. for 90 min; the plate is washed four times; biotinylated antibody working solution (100 μL/well) is added, the reaction wells are sealed with plate-sealing adhesive tape, and incubation is performed at 37° C. for 60 min; the plate is washed four times; enzyme conjugate working solution (100 μL/well) is added, the reaction wells are sealed with plate-sealing adhesive tape, and incubation is performed at 37° C. for 30 min; the plate is washed four times; chromogenic reagent (100 μL/well) is added, and incubation is performed at 37° C. for 10-20 min in the absence of light; stop solution (100 μL/well) is added, and the OD 450 nm absorbance is measured immediately after uniform mixing (within 5 min)."}, "[3]": {"tested_on": "tumor in BALB/c nude mice", "assay": "in vivo pharmacodynamics (antitumor) of PEG-modified HM-3 in BALB/c nude mice", "details": "BALB/c nude mice", "text": "Four different types of mPEG-ALD and mPEG-SC with different molecular weights are selected to modify the polypeptide […](named HM-3), i.e., mPEG-ALD5k, mPEG-ALD10k, mPEG-SC10k, mPEG-SC20k, and modification reaction conditions are explored and optimized."}, "[4]": {"tested_on": "CIA mouse models", "assay": "collagen-induced arthritis (CIA) mouse models", "format": "in vivo, DBA/1 mice", "details": "for therapeutic effect on collagen-induced arthritis in mice (conclusion): mouse, in vivo"}, "[5]": {"tested_on": "AIA rat models", "assay": "adjuvant-induced arthritis (AIA) rat models", "format": "in vivo, SD rats", "details": "for therapeutic effect on adjuvant-induced arthritis in rats (conclusion): rat, in vivo"}, "[6]": {"details": "Table 1, methotrexate 1 mg/kg, once every 5 days, three times"}, "[7]": {"details": "Tables 3 and 5, methotrexate 1 mg/kg"}, "[8]": {"details": "Table 2, methotrexate 1 mg/kg, once every 5 days, three times"}, "[9]": {"details": "Tables 4 and 6, methotrexate 1 mg/kg"}, "[10]": {"details": "high dose 0.8 mg/kg twice a day, 10 days"}, "[11]": {"details": "low dose 0.2 mg/kg twice a day, 10 days"}, "[12]": {"details": "medium dose 0.4 mg/kg twice a day, 10 days"}, "[13]": {"details": "high dose 0.4 mg/kg twice a day, 10 days"}, "[14]": {"details": "low dose 0.1 mg/kg twice a day, 10 days"}, "[15]": {"details": "medium dose 0.2 mg/kg twice a day, 10 days"}, "[16]": {"details": "high dose 3.2 mg/kg twice a day, 10 days"}, "[17]": {"details": "low dose 0.8 mg/kg twice a day, 10 days (polypeptide II)"}, "[18]": {"details": "medium dose 1.6 mg/kg twice a day, 10 days"}, "[19]": {"details": "high dose 1.6 mg/kg three times a day, 10 days"}, "[20]": {"details": "low dose 0.4 mg/kg three times a day, 10 days"}, "[21]": {"details": "medium dose 0.8 mg/kg three times a day, 10 days"}}, "note": "Marks after values point to notes of the source that are not given here. Where no end group is shown, it is not given here."}
{"molecule": "C[C@@H]1C[C@H]2[C@@H]3CCC4=CC(=O)C=C[C@]4(C)[C@@]3(F)[C@@H](O)C[C@]2(C)[C@@]1(O)C(=O)CO", "note": "[Dexamethasone, reference compound]", "values": [{"measurement": "Inhibition rate of cotton ball granuloma", "setting": "[1]", "value": "61.59** %"}, {"measurement": "cotton ball granuloma", "setting": "[1]", "value": "0.11 ± 0.04 mg(cotton ball granuloma)/100 g(weight)"}, {"measurement": "IL-1β content", "setting": "[2]", "value": "208.19 ± 13.78", "unit": "pg/mL"}, {"measurement": "inhibition at 50 µM", "setting": "[2]; Mus musculus, Peritoneal macrophage, read-out: Inhibition rate", "value": 79, "unit": "%"}]}
{"molecule": "CC(=O)O[C@H]1C(=O)[C@@]2(C)[C@H]([C@H](OC(=O)c3ccccc3)[C@]3(O)C[C@H](OC(=O)[C@H](O)[C@@H](NC(=O)c4ccccc4)c4ccccc4)C(C)=C1C3(C)C)[C@]1(OC(C)=O)CO[C@@H]1C[C@@H]2O", "note": "[paclitaxel, reference compound]", "values": [{"measurement": "antitumor effect in vivo", "setting": "[3]", "value": 44.50, "unit": "%"}]}
{"molecule": "CN(Cc1cnc2nc(N)nc(N)c2n1)c1ccc(C(=O)N[C@@H](CCC(=O)O)C(=O)O)cc1", "note": "[positive control, methotrexate, reference compound]", "values": [{"measurement": "clinical scoring", "setting": "[4]; [6]", "value": "8.1 ± 1.2"}, {"measurement": "swelling of joints", "setting": "[4]; [6]", "value": "0.76 ± 0.17", "unit": "mm"}, {"measurement": "swelling of paws", "setting": "[4]; [6]", "value": "0.95 ± 0.19", "unit": "mm"}, {"measurement": "clinical scoring", "setting": "[4]; [7]", "value": "2.33 ± 2.73"}, {"measurement": "swelling of joints", "setting": "[4]; [7]", "value": "−0.19", "unit": "mm"}, {"measurement": "swelling of paws", "setting": "[4]; [7]", "value": "0.21 ± 0.45", "unit": "mm"}, {"measurement": "clinical scoring", "setting": "[5]; [8]", "value": "5.0 ± 1.0"}, {"measurement": "swelling of left paw", "setting": "[5]; [8]", "value": "3.60 ± 0.72", "unit": "mm"}, {"measurement": "swelling of right paw", "setting": "[5]; [8]", "value": "0.68 ± 0.19", "unit": "mm"}, {"measurement": "clinical scoring", "setting": "[5]; [9]", "value": "4.00 ± 0.00"}, {"measurement": "swelling of left paw", "setting": "[5]; [9]", "value": "3.23 ± 1.20", "unit": "mm"}, {"measurement": "swelling of right paw", "setting": "[5]; [9]", "value": "0.13 ± 0.33", "unit": "mm"}]}
{"molecule": "ACDCRGDCFCGGGGIVRRADRAAVP (cysteine pairing not given here) [polypeptide I, No. 1]", "values": [{"measurement": "clinical scoring", "setting": "[4]; [10]", "value": "10.4 ± 1.6"}, {"measurement": "swelling of joints", "setting": "[4]; [10]", "value": "1.05 ± 0.31", "unit": "mm"}, {"measurement": "swelling of paws", "setting": "[4]; [10]", "value": "1.29 ± 0.26", "unit": "mm"}, {"measurement": "clinical scoring", "setting": "[4]; [11]", "value": "9.7 ± 1.5"}, {"measurement": "swelling of joints", "setting": "[4]; [11]", "value": "0.93 ± 0.23", "unit": "mm"}, {"measurement": "swelling of paws", "setting": "[4]; [11]", "value": "1.10 ± 0.22", "unit": "mm"}, {"measurement": "clinical scoring", "setting": "[4]; [12]", "value": "9.1 ± 1.4"}, {"measurement": "swelling of joints", "setting": "[4]; [12]", "value": "0.76 ± 0.17", "unit": "mm"}, {"measurement": "swelling of paws", "setting": "[4]; [12]", "value": "0.92 ± 0.18", "unit": "mm"}, {"measurement": "therapeutic effect on collagen-induced arthritis in mice (conclusion)", "setting": "[4]", "value": "CONCLUSION: polypeptide I has therapeutic effect on collagen-induced arthritis in mice"}, {"measurement": "clinical scoring", "setting": "[5]; [13]", "value": "6.0 ± 1.2"}, {"measurement": "swelling of left paw", "setting": "[5]; [13]", "value": "4.77 ± 0.95", "unit": "mm"}, {"measurement": "swelling of right paw", "setting": "[5]; [13]", "value": "1.25 ± 0.30", "unit": "mm"}, {"measurement": "clinical scoring", "setting": "[5]; [14]", "value": "5.7 ± 1.1"}, {"measurement": "swelling of left paw", "setting": "[5]; [14]", "value": "4.27 ± 0.85", "unit": "mm"}, {"measurement": "swelling of right paw", "setting": "[5]; [14]", "value": "1.18 ± 0.31", "unit": "mm"}, {"measurement": "clinical scoring", "setting": "[5]; [15]", "value": "5.3 ± 1.0"}, {"measurement": "swelling of left paw", "setting": "[5]; [15]", "value": "3.81 ± 0.76", "unit": "mm"}, {"measurement": "swelling of right paw", "setting": "[5]; [15]", "value": "0.79 ± 0.18", "unit": "mm"}, {"measurement": "therapeutic effect on adjuvant-induced arthritis in rats (conclusion)", "setting": "[5]", "value": "CONCLUSION: polypeptide I has therapeutic effect on adjuvant-induced arthritis in rats"}]}
{"molecule": "IVRRADRAAVPGGGGRGD [polypeptide II, No. 2]", "values": [{"measurement": "clinical scoring", "setting": "[4]; [16]", "value": "2.67 ± 2.34"}, {"measurement": "swelling of joints", "setting": "[4]; [16]", "value": "−0.18", "unit": "mm"}, {"measurement": "swelling of paws", "setting": "[4]; [16]", "value": "0.23 ± 0.35", "unit": "mm"}, {"measurement": "clinical scoring", "setting": "[4]; [17]", "value": "2.33 ± 3.14"}, {"measurement": "swelling of joints", "setting": "[4]; [17]", "value": "−0.19", "unit": "mm"}, {"measurement": "swelling of paws", "setting": "[4]; [17]", "value": "0.13 ± 0.28", "unit": "mm"}, {"measurement": "clinical scoring", "setting": "[4]; [18]", "value": "5.83 ± 2.93"}, {"measurement": "swelling of joints", "setting": "[4]; [18]", "value": 0.35, "unit": "mm"}, {"measurement": "swelling of paws", "setting": "[4]; [18]", "value": "0.45 ± 0.41", "unit": "mm"}, {"measurement": "therapeutic effect on collagen-induced arthritis in mice (conclusion)", "setting": "[4]", "value": "CONCLUSION: polypeptide II has therapeutic effect on collagen-induced arthritis in mice"}, {"measurement": "antitumor effect in vivo", "setting": "[3]", "value": 43.92, "unit": "%"}, {"measurement": "clinical scoring", "setting": "[5]; [19]", "value": "7.29 ± 3.40"}, {"measurement": "swelling of left paw", "setting": "[5]; [19]", "value": "4.98 ± 1.97", "unit": "mm"}, {"measurement": "swelling of right paw", "setting": "[5]; [19]", "value": "1.97 ± 1.56", "unit": "mm"}, {"measurement": "clinical scoring", "setting": "[5]; [20]", "value": "8.29 ± 4.86"}, {"measurement": "swelling of left paw", "setting": "[5]; [20]", "value": "5.03 ± 1.99", "unit": "mm"}, {"measurement": "swelling of right paw", "setting": "[5]; [20]", "value": "1.56 ± 1.66", "unit": "mm"}, {"measurement": "clinical scoring", "setting": "[5]; [21]", "value": "6.57 ± 4.24"}, {"measurement": "swelling of left paw", "setting": "[5]; [21]", "value": "4.50 ± 1.95", "unit": "mm"}, {"measurement": "swelling of right paw", "setting": "[5]; [21]", "value": "1.63 ± 1.57", "unit": "mm"}, {"measurement": "therapeutic effect on adjuvant-induced arthritis in rats (conclusion)", "setting": "[5]", "value": "CONCLUSION: polypeptide II has therapeutic effect on adjuvant-induced arthritis, and its effect is higher than that of polypeptide I."}]}
